# Measured values published in patent US8802064B2, “Inhibitors of fatty acid amide hydrolase” (Infinity Pharmaceuticals, Inc., priority 2009, dated 2014).
# Biological target: T1, human FAAH (Homo sapiens, UniProt O00519)
# T1 construct: host or cells: COS-7 cells, transient transfection (FuGENE 6); 13,000 g membrane fraction solubilised in 1% Triton X-100
# T1 sequence (O00519 1-579): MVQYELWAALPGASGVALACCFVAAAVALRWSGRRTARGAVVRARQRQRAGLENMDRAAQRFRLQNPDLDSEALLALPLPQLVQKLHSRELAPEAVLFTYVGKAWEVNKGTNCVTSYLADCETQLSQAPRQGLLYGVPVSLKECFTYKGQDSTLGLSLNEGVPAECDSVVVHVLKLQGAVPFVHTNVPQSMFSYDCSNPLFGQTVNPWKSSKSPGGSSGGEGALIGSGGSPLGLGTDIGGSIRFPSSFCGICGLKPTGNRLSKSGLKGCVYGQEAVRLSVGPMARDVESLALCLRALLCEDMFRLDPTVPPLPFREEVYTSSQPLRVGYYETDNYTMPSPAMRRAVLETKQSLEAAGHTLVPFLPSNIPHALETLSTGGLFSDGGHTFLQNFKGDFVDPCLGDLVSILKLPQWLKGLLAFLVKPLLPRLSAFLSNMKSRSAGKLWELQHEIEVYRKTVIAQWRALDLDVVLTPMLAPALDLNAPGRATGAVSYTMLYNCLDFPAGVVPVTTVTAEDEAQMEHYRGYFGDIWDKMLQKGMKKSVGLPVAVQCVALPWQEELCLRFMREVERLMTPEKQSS
# Experiment: Human FAAH inhibition assay (fluorescence, AMC arachidonoyl amide hydrolysis)
# Format: biochemical
# Details: human FAAH from transfected COS-7 cells; 20 μM AMC arachidonoyl amide; 30 min preincubation, 4 h reaction at room temperature
# Procedure: Exemplary compounds are set forth in the Examples provided below. Compounds were assayed as inhibitors of human FAAH using the method described in detail in Example 16.
# The following assays were used to determine the inhibition of FAAH: (1) a fluorescence-based assay (Manjunath et al., Analytical Biochemistry (2005) 343:143-151); and (2) a microsome-based fluorescent assay (Wang et al., Biomolecular Screening (2006) 1-9).
# COS-7 cells were split the day before, 1:5 into 150 mm×25 mm cell culture dishes (Corning Inc., Cat. No. 430599). Transient transfection took place at 30-40% confluency according to FuGENE 6 Transfection Reagent (Roche, Cat. No. 11814 443 001).
# The FuGENE transfection 6 reagent (45 uL) was added to 1410 μL of media (DMEM, serum free without pen/strep) in a 15 mL conical tube and incubated at room temp for 5 minutes, followed by the addition of FAAH plasmid DNA (15 μg) (OriGene Cat. No. TC119221, Genbank Accession No. NM_001441.1, 0.67 ug/uL) and a further incubation of 15 minutes at room temperature. The resulting solution was added into one dish of 30-40% confluent COS-7 cells in a dropwise manner. The COS-7 cell dish was subsequently incubated for 48 hours. The cells were then harvested.
# Media was aspirated from the dishes and the cells rinsed with 10 mL PBS. The PBS was removed and 3 mL of PBS added to the dish. The dish was scraped to resuspend the cells, and the subsequent cell suspension collected into a 15 mL conical tube. The cells were pelleted by centrifugation at 1200 rpm for 5 minutes in a bench top centrifuge. PBS was removed and the cell pellet snap frozen in liquid nitrogen and stored at 80° C.
# COS-7 Cells FAAH purification: • (1) Fractionation: Frozen cell pellets from transient transfections were thawed on ice and resuspended in 12.5 mM Hepes pH 8.0, 100 mM NaCl, 1 mM EDTA (10 mL/0.2 g cell pellet). The pellets were dounce homogenized and then sonicated to produce cell extract. The cell extract was subsequently centrifuged at 1000 g to remove cellular debris. The pellet was discarded and the supernatant centrifuged at 13,000 g for 20 minutes. The pellet contained membrane bound FAAH. The supernatant was discarded and the pellet resolubilized. • (2) Resolubilization: The fraction of interest, (13,000 g, membrane fraction) was resuspended in 2.3 mL resuspension buffer (20 mM Hepes pH 7.8, 10% v/v Glycerol, 1 mM EDTA, 1% Triton X-100) and the sample incubated on ice for 1 hour and then centrifuged to remove any particulate matter. The supernatant containing solubilized human FAAH was aliquoted and snap frozen in liquid nitrogen and stored at 80° C. until use. • (3) Characterization: Protein Concentration determined by Bradford assay. • SDS gel and Western blot to confirm presence of FAAH • FAAH activity assay • Km determination—96-well assay • Linear dependence—96-well assay • Standard compound Ki determination—384-well assay
# Rat FAAH biochemical assays were carried out in a 96 well flat bottom black nontreated polystyrene plates (Corning Costar Catalogue #3915). FAAH reaction buffer: 50 mM Hepes (pH 7.5), 1 mM EDTA, 0.2% Triton X-100. FAAH substrate—AMC Arachidonoyl Amide (Cayman Chemicals Company, Catalog #10005098). The reaction was read in an Envision microtiter plate reader [Excitation filter 355 nm (40 nm bandpass); Emmision filter 460 nm (25 nm bandpass)]. The raw fluorescence was plotted on the y axis and the inhibitor concentration on the x axis to give a dose response inhibition curve. The data was fitted to a single site competitive inhibition equation, fixing the Km for the rat and human enzyme to 12 μM and 9 μM respectively.
# The principle of this assay was the hydrolysis of AMC-Arichodonoyl, a fluorescent analogue of Anandamide, which results in the formation of Arachidonic acid and AMC. The formation of AMC results in an increase in fluorescence (see, for example, Manjunath et al., Analytical Biochemistry (2005) 343:143-151; and Wang et al., Biomolecular Screening (2006) 1-9). […]
row,Ki,SMILES
1,10 to 100 nM,Cn1ccc2cc(B(O)O)ccc2c1=O [Compound 1]
2,10 to 100 nM,O=c1c2ccc(B(O)O)cc2ccn1Cc1ccccc1 [Compound 2]
3,≤ 10 nM,O=c1c2ccc(B(O)O)cc2ccn1CCc1ccccc1 [Compound 3]
4,10 to 100 nM,CC(c1ccccc1)n1ccc2cc(B(O)O)ccc2c1=O (stereo not drawn) [Compound 4]
5,10 to 100 nM,CC(Cn1ccc2cc(B(O)O)ccc2c1=O)c1ccccc1 (stereo not drawn) [Compound 5]
6,10 to 100 nM,CC(Cc1ccccc1)n1ccc2cc(B(O)O)ccc2c1=O (stereo not drawn) [Compound 6]
7,≤ 10 nM,CCCCCCn1ccc2cc(B(O)O)ccc2c1=O [Compound 7]
8,> 1000 nM,Cc1nc2cc(B(O)O)ccc2c(=O)n1C [Compound 8]
9,10 to 100 nM,Cc1nc2cc(B(O)O)ccc2c(=O)n1CCc1ccccc1 [Compound 9]
10,≤ 10 nM,O=c1c2ccc(B(O)O)cc2ncn1CCc1ccccc1 [Compound 10]
11,10 to 100 nM,O=c1c2cc(B(O)O)ccc2ccn1CCc1ccccc1 [Compound 11]
12,≤ 10 nM,O=C1c2ccc(B(O)O)cc2CCN1CCc1ccccc1 [Compound 12]
13,≤ 10 nM,O=c1c2ccc(B(O)O)cc2cnn1CCc1ccccc1 [Compound 13]
14,100 to 1000 nM,O=c1[nH]c(CCc2ccccc2)nc2ccc(B(O)O)cc12 [Compound 14]
15,≤ 10 nM,O=C1c2ccc(B(O)O)cc2CN1CCc1ccccc1 [Compound 15]
